Data from US12247032B2, “Substituted pyrazolo[1,5-a]pyrimidines as inhibitors of JAK kinases” (Genentech, Inc., priority 2019, dated 2025).

Target: T1, Recombinant human JAK2 kinase domain protein (Residues 812-1132) (Homo sapiens, UniProt O60674)
T1 construct: human JAK2 kinase domain protein (Residues 812-1132); made in house; host or cells: insect cells
Assay: JAK2 biochemical assay (microfluidic mobility shift, peptide phosphorylation)
Conditions: 25 μM ATP, 0.2 nM total JAK2; Ki calculated from Ki app (tight-binding, competitive); read-out: Biochem JAK2 Ki
Summary of the method: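 Insect-cell-expressed human JAK1 (1 nM, residues 854-1154) or JAK2 (0.2 nM, residues 812-1132) phosphorylating 1.5 μM 5-FAM peptide Y-1B with 25 μM ATP, pH 7.2 HEPES, 30 min at 22-23 °C; twelve concentrations up to 1000 nM in duplicate. Mobility-shift % conversion fitted to tight-binding quadratic for Ki^app.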

T1 sequence (O60674 812-1132): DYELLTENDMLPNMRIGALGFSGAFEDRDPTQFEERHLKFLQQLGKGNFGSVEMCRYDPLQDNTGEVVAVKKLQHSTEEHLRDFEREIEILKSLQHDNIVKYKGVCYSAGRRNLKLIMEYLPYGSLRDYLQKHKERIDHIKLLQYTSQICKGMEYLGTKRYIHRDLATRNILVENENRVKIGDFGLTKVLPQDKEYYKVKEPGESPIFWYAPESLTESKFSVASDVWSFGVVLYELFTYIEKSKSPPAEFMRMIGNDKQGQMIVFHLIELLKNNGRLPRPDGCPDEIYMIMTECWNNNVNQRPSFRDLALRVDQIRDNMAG

- Ki: 0.41 nM
SMILES: CN1CC(N2CC(n3nnc(Cn4cc(NC(=O)c5cnn6cccnc56)c(-c5cc(OC(F)F)ccc5OC(F)F)n4)n3)C2)C1 [Example 78, N-[3-[2,5-bis(difluoromethoxy)phenyl]-1-[[2-[1-(1-methylazetidin-3-yl)azetidin-3-yl]tetrazol-5-yl]methyl]pyrazol-4-yl]pyrazolo[1,5-a]pyrimidine-3-carboxamide; formic acid]
